Series [1] in a line: Stability constant (K1:1) of active pharmaceutical ingredient/γ-cyclodextrin complexes from phase-solubility profiles. In kind it is physicochemical. The note with it: initial linear part of phase-solubility profile.
Excerpt: (§1) Kinase inhibitors were suspended in aqueous solutions containing from 1% (w/v) to 15% (w/v) γ-cyclodextrin.
A short description of series [2]: Solubility of kinase inhibitors in aqueous γ-cyclodextrin media. In kind it is physicochemical. The note with it: aqueous with cosolvent or surfactant or cyclodextrin, thermodynamic from solid. The procedure: Kinase inhibitors were suspended in aqueous media consisting of pure water, aqueous γ-cyclodextrin solution, aqueous solution containing γ-cyclodextrin and tyloxapol (1% w/v), and aqueous eye drop medium containing γ-cyclodextrin, benzalkonium chloride (0.02% w/v), disodium edetate (0.10% w/v) and sodium chloride (0.05% w/v). The concentration of γ-cyclodextrin varied depending on the kinase inhibitor. The solubility was determined as described in Example 10.

Series [3] in a line: Solubility of kinase inhibitors in pure water (S0) from phase-solubility profiles. The note with it: for solubility: 25 °C, water, thermodynamic from solid, read-out: S0 (mg/mL), solubility in pure water. It is filed as physicochemical.
Excerpt: as §1
The conditions of series [4]: 25° C.; cited from earlier work.
[5] abbreviates: aqueous eye drop medium with 4% w/v γ-cyclodextrin, eye drop medium: 4 % w/v γ-cyclodextrin, benzalkonium chloride 0.02%, disodium edetate 0.10%, sodium chloride 0.05%, read-out: Solubility (mg/mL) Eye drops.
Where [6] appears, read: aqueous solution with 4 % w/v γ-cyclodextrin and tyloxapol (1% w/v), read-out: Solubility (mg/mL) Tyloxapol.
Where [7] appears, read: aqueous γ-cyclodextrin solution, 4 % w/v γ-cyclodextrin, read-out: Solubility (mg/mL) γ-Cyclodextrin.

Values after ≈ are worked out from the molar mass of the structure shown.

With `CNC(=O)c1ccccc1Sc1ccc2c(/C=C/c3ccccn3)n[nH]c2c1` [Axitinib], the “K1:1 (M^−1), stability constant of drug/γ-cyclodextrin complex” value (shortened to “K1:1 (M^−1), stability constant”) in series [1] was 260 M⁻¹. Besides, the solubility in series [2] (setting [5]) came to 0.007 mg/mL (≈ 18.1 µM); in series [2] (setting [6]) it was 0.008 mg/mL (≈ 20.7 µM); in series [2] (setting [7]) it was 0.003 mg/mL (≈ 7.76 µM); in series [3], 0.0004 mg/mL (≈ 1.03 µM).
As to `CC1(C)CNc2cc(NC(=O)c3cccnc3NCc3ccncc3)ccc21` [Motesanib], the “K1:1 (M^−1), stability constant” value in series [1] was 140 M⁻¹. Moreover, the solubility was found to be 0.07 mg/mL (≈ 187 µM) in series [2] (aqueous eye drop medium with 8% w/v γ-cyclodextrin, eye drop medium: 8 % w/v γ-cyclodextrin, benzalkonium chloride 0.02%, disodium edetate 0.10%, sodium chloride 0.05%, read-out: Solubility (mg/mL) Eye drops); 0.04 mg/mL (≈ 107 µM) in series [2] (aqueous solution with 8 % w/v γ-cyclodextrin and tyloxapol (1% w/v), read-out: Solubility (mg/mL) Tyloxapol); 0.09 mg/mL (≈ 241 µM) in series [2] (aqueous γ-cyclodextrin solution, 8 % w/v γ-cyclodextrin, read-out: Solubility (mg/mL) γ-Cyclodextrin); 0.014 mg/mL (≈ 37.5 µM) in series [3].
Consider `COc1cc2c(Oc3ccc4[nH]c(C)cc4c3F)ncnc2cc1OCCCN1CCCC1` [Cediranib], for which the “K1:1 (M^−1), stability constant” value in series [1] was found to be 23 M⁻¹. For the same compound, the solubility stood at 4.1 mg/mL (≈ 9100 µM) in series [2] (aqueous eye drop medium with 12% w/v γ-cyclodextrin, eye drop medium: 12 % w/v γ-cyclodextrin, benzalkonium chloride 0.02%, disodium edetate 0.10%, sodium chloride 0.05%, read-out: Solubility (mg/mL) Eye drops); 2.8 mg/mL (≈ 6220 µM) in series [2] (aqueous solution with 12 % w/v γ-cyclodextrin and tyloxapol (1% w/v), read-out: Solubility (mg/mL) Tyloxapol); 2 mg/mL (≈ 4440 µM) in series [2] (aqueous γ-cyclodextrin solution, 12 % w/v γ-cyclodextrin, read-out: Solubility (mg/mL) γ-Cyclodextrin); 1.2 mg/mL (≈ 2660 µM) in series [3].
Regarding `OC[C@H]1O[C@@H]2O[C@H]3[C@H](O)[C@@H](O)[C@@H](O[C@H]4[C@H](O)[C@@H](O)[C@@H](O[C@H]5[C@H](O)[C@@H](O)[C@@H](O[C@H]6[C@H](O)[C@@H](O)[C@@H](O[C@H]7[C@H](O)[C@@H](O)[C@@H](O[C@H]8[C@H](O)[C@@H](O)[C@@H](O[C@H]9[C@H](O)[C@@H](O)[C@@H](O[C@H]1[C@H](O)[C@H]2O)O[C@@H]9CO)O[C@@H]8CO)O[C@@H]7CO)O[C@@H]6CO)O[C@@H]5CO)O[C@@H]4CO)O[C@@H]3CO` [γ-cyclodextrin], the “solubility in pure water” value in series [4] was 249200 ± 200 µg/mL (≈ 192000 µM).
As for `Cc1ccc(Nc2nccc(N(C)c3ccc4c(C)n(C)nc4c3)n2)cc1S(N)(=O)=O` [Pazopanib], the “K1:1 (M^−1), stability constant” value in series [1] was 13 M⁻¹. For the same compound, the solubility was 0.01 mg/mL (≈ 22.9 µM) in series [2] (aqueous eye drop medium with 16% w/v γ-cyclodextrin, eye drop medium: 16 % w/v γ-cyclodextrin, benzalkonium chloride 0.02%, disodium edetate 0.10%, sodium chloride 0.05%, read-out: Solubility (mg/mL) Eye drops); 0.006 mg/mL (≈ 13.7 µM) in series [2] (aqueous solution with 16 % w/v γ-cyclodextrin and tyloxapol (1% w/v), read-out: Solubility (mg/mL) Tyloxapol); 0.007 mg/mL (≈ 16 µM) in series [2] (aqueous γ-cyclodextrin solution, 16 % w/v γ-cyclodextrin, read-out: Solubility (mg/mL) γ-Cyclodextrin); 0.0006 mg/mL (≈ 1.37 µM) in series [3].
For `OC[C@H]1O[C@@H]2O[C@H]3[C@H](O)[C@@H](O)[C@@H](O[C@H]4[C@H](O)[C@@H](O)[C@@H](O[C@H]5[C@H](O)[C@@H](O)[C@@H](O[C@H]6[C@H](O)[C@@H](O)[C@@H](O[C@H]7[C@H](O)[C@@H](O)[C@@H](O[C@H]1[C@H](O)[C@H]2O)O[C@@H]7CO)O[C@@H]6CO)O[C@@H]5CO)O[C@@H]4CO)O[C@@H]3CO` [α-cyclodextrin], in series [4], the “solubility in pure water” value is 129500 ± 700 µg/mL (≈ 133000 µM).
As to `CN1CCN(c2ccc3nc(-c4c(N)c5c(F)cccc5[nH]c4=O)[nH]c3c2)CC1` [Dovitinib], in series [1], the “K1:1 (M^−1), stability constant” value turned out to be 680 M⁻¹. Further, in series [3], the “S0 (mg/mL), solubility in pure water” value worked out at 0.006 mg/mL.
For the compound `CNC(=O)c1cc(Oc2ccc(NC(=O)Nc3ccc(Cl)c(C(F)(F)F)c3)c(F)c2)ccn1` [Regorafenib], the “K1:1 (M^−1), stability constant” value in series [1] is 94 M⁻¹. The solubility in series [2] (setting [5]) turned out to be 0.0008 mg/mL (≈ 1.66 µM); in series [2] (setting [6]), 0.005 mg/mL (≈ 10.4 µM); in series [2] (setting [7]), 0.0005 mg/mL (≈ 1.04 µM); in series [3], 0.0001 mg/mL (≈ 0.207 µM).

Values taken from patent US20190343846A1, “PREPARATION OF SOLID CYCLODEXTRIN COMPLEXES FOR OPHTHALMIC ACTIVE PHARMACEUTICAL INGREDIENT DELIVERY” (OCULIS SA, priority 2016, published 2019).
